According to PubChem BioAssay AID248 (DTP/NCI, 2004):
Values joined by “and” are separate entries in the source; they are usually repeats but may differ in a detail not shown here. Equal entries are not always repeated. Inconclusive results and toxic doses are left out. Rule as the data show it: active = T/C of 150% or more; inactive = T/C below 125%.

System: L1210 leukemia ip in BDF1 mice, survival T/C
Test: NCI In Vivo Anticancer Drug Screen. Data for tumor model L1210 Leukemia (intraperitoneal) in B6D2F1 (BDF1) mice
Details: endpoint: mean survival time, higher = longer survival
Procedure, shortened: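 Tumor cells were implanted, animals were treated, and survival was followed. The result divides the treated measurement by the vehicle-control measurement.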

[1] = dose: 100.0 mg/kg/injection, schedule: Q01DX009 (ip), vehicle: Klucel (hydroxypropylcellulose) (HPC)
[2] = dose: 100.0 mg/kg/injection, schedule: Q04DX003 (ip), vehicle: Klucel (hydroxypropylcellulose) (HPC)
[3] = dose: 200.0 mg/kg/injection, schedule: Q01DX009 (ip), vehicle: Klucel (hydroxypropylcellulose) (HPC)
[4] = dose: 200.0 mg/kg/injection, schedule: Q04DX003 (ip), vehicle: Klucel (hydroxypropylcellulose) (HPC)
[5] = dose: 400.0 mg/kg/injection, schedule: Q04DX003 (ip), vehicle: Klucel (hydroxypropylcellulose) (HPC)
[6] = dose: 100.0 mg/kg/injection, schedule: Q04DX002 (ip), vehicle: saline with Tween-80
[7] = dose: 100.0 mg/kg/injection, schedule: Q04DX003 (ip), vehicle: saline with Tween-80
[8] = dose: 200.0 mg/kg/injection, schedule: Q04DX003 (ip), vehicle: saline with Tween-80
[9] = dose: 400.0 mg/kg/injection, schedule: Q04DX003 (ip), vehicle: saline with Tween-80
[10] = dose: 100.0 mg/kg/injection, schedule: Q01DX009 (ip), vehicle: acetone
[11] = dose: 50.0 mg/kg/injection, schedule: Q01DX009 (ip), vehicle: saline with Tween-80
[12] = dose: 100.0 mg/kg/injection, schedule: Q04DX003 (ip), vehicle: saline
[13] = dose: 200.0 mg/kg/injection, schedule: Q04DX003 (ip), vehicle: saline
[14] = dose: 400.0 mg/kg/injection, schedule: Q04DX003 (ip), vehicle: saline

Measured: T/C

COc1ccc(S(=O)(=O)NC(=O)NCC=C(C)C)cc1
inactive: dose: 50.0 mg/kg/injection, schedule: Q01DX009 (ip), vehicle: Klucel (hydroxypropylcellulose) (HPC) 98 % of control | [1] 98 % of control | [2] 93 % of control | [3] 96 % of control | [4] 103 % of control | [5] 94 % of control

CC(C)Cc1ncc(CCCN=C(N)N)[nH]c1=O
inactive: dose: 12.5 mg/kg/injection, schedule: Q04DX002 (ip), vehicle: saline with Tween-80 106 % of control | dose: 25.0 mg/kg/injection, schedule: Q04DX002 (ip), vehicle: saline with Tween-80 98 % of control | dose: 50.0 mg/kg/injection, schedule: Q04DX002 (ip), vehicle: saline with Tween-80 95 % of control | [6] 103 % of control

CN1CCN(C(=O)OCCOCCOC(=O)N2CCN(C)CC2)CC1
inactive: dose: 150.0 mg/kg/injection, schedule: Q01DX Z (ip), vehicle: saline 108 % of control | dose: 230.0 mg/kg/injection, schedule: Q01DX Z (ip), vehicle: saline 93 % of control | dose: 350.0 mg/kg/injection, schedule: Q01DX Z (ip), vehicle: saline 100 % of control

COC(=O)N/N=C/c1ccc(Cl)cc1Cl
inactive: dose: 6.25 mg/kg/injection, schedule: Q01DX009 (ip), vehicle: Klucel (hydroxypropylcellulose) (HPC) 94 % of control | dose: 12.5 mg/kg/injection, schedule: Q01DX009 (ip), vehicle: Klucel (hydroxypropylcellulose) (HPC) 101 % of control | dose: 25.0 mg/kg/injection, schedule: Q01DX009 (ip), vehicle: Klucel (hydroxypropylcellulose) (HPC) 94 % of control and 92 % of control

CCOC(=O)Nc1cc(NC(=O)OCC)cc([N+](=O)[O-])c1
inactive: [7] 110 % of control | [8] 102 % of control | [9] 89 % of control

COC(=O)CCC(=O)Nc1ccccc1C(C)=O
inactive: [7] 104 % of control | [8] 93 % of control | [9] 93 % of control

O=C(C1C(c2ccccc2)N1Cc1ccccc1)C1C(c2ccccc2)N1Cc1ccccc1 (stereo unspecified)
inactive: dose: 75.0 mg/kg/injection, schedule: Q01DX001 (ip), vehicle: Klucel (hydroxypropylcellulose) (HPC) 101 % of control | dose: 150.0 mg/kg/injection, schedule: Q01DX001 (ip), vehicle: Klucel (hydroxypropylcellulose) (HPC) 88 % of control | dose: 300.0 mg/kg/injection, schedule: Q01DX001 (ip), vehicle: Klucel (hydroxypropylcellulose) (HPC) 93 % of control

[CH3][Sb]([CH3])([CH3])([O]C(=O)C(Cl)Cl)[O]C(=O)C(Cl)Cl
inactive: [7] 105 % of control | [8] 108 % of control | [9] 103 % of control

N#Cc1ccc(S(N)(=O)=O)cc1
inactive: dose: 100.0 mg/kg/injection, schedule: Q01DX001 (ip), vehicle: saline 100 % of control | [10] 98 % of control | dose: 100.0 mg/kg/injection, schedule: Q04DX003 (ip), vehicle: acetone 96 % of control | dose: 200.0 mg/kg/injection, schedule: Q01DX001 (ip), vehicle: saline 94 % of control | dose: 200.0 mg/kg/injection, schedule: Q04DX003 (ip), vehicle: acetone 94 % of control | dose: 400.0 mg/kg/injection, schedule: Q01DX001 (ip), vehicle: saline 120 % of control | dose: 400.0 mg/kg/injection, schedule: Q04DX003 (ip), vehicle: acetone 100 % of control

COc1ccccc1NC(=O)Oc1ccc(-c2ccccc2)cc1Br
inactive: [1] 92 % of control | [2] 97 % of control | [3] 97 % of control | [4] 95 % of control | dose: 400.0 mg/kg/injection, schedule: Q01DX009 (ip), vehicle: Klucel (hydroxypropylcellulose) (HPC) 101 % of control | [5] 93 % of control

O=C(CCc1cccnc1)Nc1ccccc1
inactive: [2] 102 % of control | [4] 100 % of control | [5] 94 % of control

S=C(Nc1ccc(Cl)cc1)Nc1ccc(Cl)cc1
inactive: [2] 108 % of control | [4] 103 % of control | [5] 97 % of control

NC(N)=NNc1ccccc1
inactive: dose: 25.0 mg/kg/injection, schedule: Q01DX009 (ip), vehicle: saline with Tween-80 115 % of control | [11] 107 % of control | dose: 50.0 mg/kg/injection, schedule: Q01DX009 (ip), vehicle: saline 95 % of control | dose: 100.0 mg/kg/injection, schedule: Q01DX009 (ip), vehicle: saline with Tween-80 86 % of control | dose: 100.0 mg/kg/injection, schedule: Q01DX009 (ip), vehicle: saline 97 % of control

Cc1nc2ccc(-c3ccccc3)cc2s1
inactive: dose: 100.0 mg/kg/injection, schedule: Q01DX001 (ip), vehicle: saline with Tween-80 111 % of control | dose: 200.0 mg/kg/injection, schedule: Q01DX001 (ip), vehicle: saline with Tween-80 108 % of control | dose: 400.0 mg/kg/injection, schedule: Q01DX001 (ip), vehicle: saline with Tween-80 103 % of control

COC1C(=O)CCC2(CO2)C1(O)C1(C)OC1CCC(C)C (stereo unspecified)
inactive: [10] 95 % of control | dose: 200.0 mg/kg/injection, schedule: Q01DX009 (ip), vehicle: acetone 92 % of control

Cc1ccc(NC(=O)NCC2(C)CC(NC(=O)Nc3ccc(C)cc3)CC(C)(C)C2)cc1 (stereo unspecified)
inactive: [11] 87 % of control | [7] 91 % of control | [8] 91 % of control

Cc1ccc(NC(=O)C2C3CC4OC(=O)C2C4C3)cc1 (stereo unspecified)
inactive: [12] 102 % of control | [13] 108 % of control | [14] 111 % of control

O=C(OCCc1ccccc1)c1ccccc1
inactive: [6] 100 % of control | dose: 200.0 mg/kg/injection, schedule: Q04DX002 (ip), vehicle: saline with Tween-80 100 % of control | dose: 400.0 mg/kg/injection, schedule: Q04DX002 (ip), vehicle: saline with Tween-80 103 % of control

Nc1ncnc2c1ncn2C1CC(O)C(CO)O1 (stereo unspecified)
inactive: [7] 101 % of control | [12] 98 % of control | [8] 98 % of control | [13] 104 % of control | [9] 98 % of control | [14] 93 % of control | dose: 440.0 mg/kg/injection, schedule: Q03HX024 (ip), vehicle: saline with Tween-80 105 % of control | dose: 660.0 mg/kg/injection, schedule: Q03HX024 (ip), vehicle: saline with Tween-80 110 % of control | dose: 1000.0 mg/kg/injection, schedule: Q03HX024 (ip), vehicle: saline with Tween-80 104 % of control

Cc1cccc(Nc2cc(=S)nc(N)[nH]2)c1
inactive: dose: 100.0 mg/kg/injection, schedule: Q01DX Z (ip), vehicle: methylcellulose (MC) 98 % of control | dose: 200.0 mg/kg/injection, schedule: Q01DX Z (ip), vehicle: methylcellulose (MC) 106 % of control

Cn1c(=O)c2c(nc(C3CC3)n2C)n(C)c1=O
inactive: dose: 50.0 mg/kg/injection, schedule: Q01DX001 (ip), vehicle: other 112 % of control | dose: 100.0 mg/kg/injection, schedule: Q01DX001 (ip), vehicle: other 95 % of control | dose: 200.0 mg/kg/injection, schedule: Q01DX001 (ip), vehicle: other 95 % of control

CC1(C)CC(OP(=O)(Cl)OC2CC(C)(C)N(O)C(C)(C)C2)CC(C)(C)N1O
inactive: dose: 100.0 mg/kg/injection, schedule: Q01DX001 (ip), vehicle: water 97 % of control | dose: 200.0 mg/kg/injection, schedule: Q01DX001 (ip), vehicle: water 94 % of control | dose: 400.0 mg/kg/injection, schedule: Q01DX001 (ip), vehicle: water 94 % of control

O=c1scc(-c2ccccc2)s1
inactive: dose: 100.0 mg/kg/injection, schedule: Q04DX002 (ip), vehicle: Klucel (hydroxypropylcellulose) (HPC) 113 % of control | dose: 200.0 mg/kg/injection, schedule: Q04DX002 (ip), vehicle: Klucel (hydroxypropylcellulose) (HPC) 88 % of control | dose: 400.0 mg/kg/injection, schedule: Q04DX002 (ip), vehicle: Klucel (hydroxypropylcellulose) (HPC) 106 % of control
